SMILES strings stand for the structures. Like-named read-outs stand apart in the source and are kept apart here.

One data set deals with normal human fibroblasts. As to the kind of experiment: Uptake by normal cells by ICP-MS. In kind it is cell-based. The conditions noted are these: 200 uM, 0.8 mg/mL transferrin, 4 hours, much lesser extent than cancer cells. As to the method: Cell culture (normal human fibroblasts) was exposed to 200 uM of the photosensitizer without additional transferrin and in the presence of 0.8 mg/mL transferrin for 4 hours. The incubation mix was washed away and the cells were collected, counted, and lysed. Lysed solution was dissolved in nitric acid and appropriate metals concentration was measured using inductively coupled plasma mass spectrometry. The metals concentration is directly proportional to the concentration of the photosensitizer.

Another data set concerns the target Transferrin (Homo sapiens, UniProt P02787). As to the kind of experiment: Binding to transferrin by absorption spectra. The conditions noted are these: transferrin 0.2 mg/mL; photosensitizer 10 uM. On the procedure: Transferrin (0.2 mg/mL) was incubated with the photosensitizers (10 uM) and absorption spectra were obtained.
Binding of Ruthenium and Ruthenium-Rhodium-based photosensitizers to transferrin is characterized by a characteristic signature: an increased peak of absorption at 280 nm and a new peak in 400-500 nm range.

The next data set concerns Mice. As to the kind of experiment: In vivo toxicity, maximum tolerated dose, i.p. escalating doses. The conditions noted are these: no transferrin. Also noted: species or system mouse. As to the method:
Mice were injected (i.p.) with escalating doses of the photosensitizers with and without transferrin.

The next data set relates to U87 cells. As to the kind of experiment: Intracellular uptake by ICP-MS, cancer cells. In kind it is cell-based, human. The conditions noted are these: 200 uM photosensitizer, 0.8 mg/mL transferrin, 4 hours. On the procedure: Cell culture (U87 cells) was exposed to 200 uM of the photosensitizer without additional transferrin and in the presence of 0.8 mg/mL transferrin for 4 hours. The incubation mix was washed away and the cells were collected, counted, and lysed. Lysed solution was dissolved in nitric acid and appropriate metals concentration was measured using inductively coupled plasma mass spectrometry. The metals concentration is directly proportional to the concentration of the photosensitizer.

The next data set has as its system AY27 cancer cells. In words: Transferrin receptor antibody blocking, dark toxicity and PDT effect. In kind it is cell-based. The conditions noted are these: 635 nm, 90 J cm−2, anti-transferrin receptor antibody. On the procedure: The cells were incubated with anti-transferrin receptor antibody. The photosensitizer was pre-mixed in parallel with 0.4 mg/mL human transferrin and incubated for 1 hour at 37° C. In control group (no additional transferrin), equivalent volume of no-transferrin medium was added. The cells were washed of the excess of antibody (the cells incubated in medium without antibody served as comparison groups) and incubated with the pre-mixes for 30 minutes. After that, the medium was replaced with a fresh one (without photosensitizer and transferrin) and the cells were irradiated. On the next day (21 hours post-irradiation), viability of the cells was measured using Presto Blue viability assay, and percent of cell kill was calculated. The PDT effect shown is a result of subtraction of “photosensitizer alone” and “light alone” cell kill from the total PDT cell kill. Dark toxicity is shown on FIG. 20A, PDT effect is shown on FIG. 20B.
(§1) The cells were incubated with anti-transferrin antibody. […] On the next day (21 hours post-irradiation), viability of the cells was measured using Presto Blue viability assay, and percent of cell kill was calculated. […]
as §1

Sequence of Transferrin (P02787 20-698): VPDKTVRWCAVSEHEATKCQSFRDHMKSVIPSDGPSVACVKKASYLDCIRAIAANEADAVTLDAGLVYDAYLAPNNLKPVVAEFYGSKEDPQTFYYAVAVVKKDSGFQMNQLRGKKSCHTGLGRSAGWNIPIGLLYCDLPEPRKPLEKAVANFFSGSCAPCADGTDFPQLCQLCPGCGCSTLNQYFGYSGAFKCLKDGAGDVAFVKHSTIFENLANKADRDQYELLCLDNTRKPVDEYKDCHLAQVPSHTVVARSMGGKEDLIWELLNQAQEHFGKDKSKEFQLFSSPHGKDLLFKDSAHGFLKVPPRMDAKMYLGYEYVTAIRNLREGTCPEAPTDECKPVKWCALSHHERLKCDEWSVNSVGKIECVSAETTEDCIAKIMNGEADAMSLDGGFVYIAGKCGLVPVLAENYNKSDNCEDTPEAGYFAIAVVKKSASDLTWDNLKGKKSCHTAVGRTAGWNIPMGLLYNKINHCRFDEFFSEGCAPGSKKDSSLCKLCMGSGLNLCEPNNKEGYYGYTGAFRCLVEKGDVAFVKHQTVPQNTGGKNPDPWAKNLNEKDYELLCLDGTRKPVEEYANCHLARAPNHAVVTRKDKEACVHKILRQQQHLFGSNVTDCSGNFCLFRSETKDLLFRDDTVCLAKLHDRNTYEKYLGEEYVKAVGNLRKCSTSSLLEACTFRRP

In the case of `[Os+2].c1ccc2cc3nc4c5cccnc5c5ncccc5c4nc3cc2c1.c1ccc2nc(-c3ccc4ccccc4n3)ccc2c1.c1ccc2nc(-c3ccc4ccccc4n3)ccc2c1` [TLDOsH2dppn], in the data set with normal human fibroblasts, the “cellular accumulation in normal cells, effect of transferrin” value was “higher in the presence of transferrin”. Moreover, the “transferrin binding (absorption spectra)” value on Transferrin is on record as “transferrin binding”. Further, in the data set on Mice, the “MTD Dose” value amounted to 50 mg/kg. Besides, the “uptake into cancer cells, effect of transferrin” value in the data set with U87 cells is recorded as “transferrin facilitated uptake”. Also, the “Therapeutic Ratio” value is on record as 1639.8 in the data set on AY27 cells (530 nm, 90 J cm−2, no transferrin); 5531.9 in the data set with AY27 cells (530 nm, 90 J cm−2, transferrin); 28.7 in the data set on AY27 cells (650 nm, 90 J cm−2, no transferrin); 61.7 with AY27 cells (650 nm, 90 J cm−2, transferrin). The “effect of blocking transferrin receptors on dark toxicity and PDT effect” value with AY27 cancer cells is “prevents decrease in dark toxicity and facilitation of PDT effect”.

These data come from patent US10111936B2, “Metal-glycoprotein complexes and photodynamic therapy of immune privileged sites with same” (Theralase Technologies, Inc., priority 2015, dated 2018).
